Laboratory results: patent publication US20120202693A1 (DOW AGROSCIENCES LLC, priority 2011, published 2012)
Several values for one entry are separate records, joined by “and”; a condition that tells them apart may be missing. Identical values can stand only once.

Tests used:
Assay type in all cases: in vivo
[1] = test system: scented mayweed (Matricaria chamomilla, MATCH); assay: Postemergence herbicidal activity of mixtures under field conditions (vines), visual weed control; settings: 27 days after application
Method: (§1) Evaluation of Postemergence Herbicidal Activity of Mixtures under Field Conditions Methodology
(§2) Trial site was located in commercially grown vines of European grape (Vitis vinifera). The trial was conducted using normal research methodology. Trial plots were between 2 m wide by […] long. All treatments were applied using a randomized complete block trial design with 3 replications per treatment. The trial sites had naturally occurring populations of weeds. The weed spectrum included, but was not limited to, ryegrass (Lolium spp, LOLSS), scented mayweed (Matricaria chamomilla, MATCH), and annual bluegrass (Poa annua, POAAN).
(§3) Treatments consisted of tank mixes of an oil dispersion of penoxsulam and commercially available formulation of glyphosate applied in water. The application volume was 250 liters per hectare (L/ha). Application was made using a precision gas hand sprayer at 250 kPA pressure using a 2 m boom with flat fan (80015VS) nozzles to broadcast the treatments to the weeds and to the soil.
(§4) […] Ratings were based on Percent (%) Visual weed control, where 0 corresponds to no control and 100 corresponds to complete control.
(§5) Colby's equation was used to determine the herbicidal effects expected from the mixtures (Colby, S. R. Calculation of the synergistic and antagonistic response of herbicide combinations. Weeds 1967 15, 20-22).
(§6) The following equation was used to calculate the expected activity of mixtures containing two active ingredients, A and B:
(§7) A=observed efficacy of active ingredient A at the same concentration as used in the mixture;
(§8) B=observed efficacy of active ingredient B at the same concentration as used in the mixture.

[2] = test system: ryegrass (Lolium spp, LOLSS); assay: as above; settings: 61 days after application
Method: as §1, §2, §3, §4, §5, §6, §7, §8

[3] = test system: annual bluegrass (Poa annua, POAAN); assay: as above; settings: 27 days after application
Method: as §1, §2, §3, §4, §5, §6, §7, §8

[4] = test system: broadleaf signalgrass (Brachiaria platyphylla, BRAPP); assay: Postemergence herbicidal activity of mixtures in the greenhouse, visual weed control; settings: 16 days after application
Method: (§9) Evaluation of Postemergence Herbicidal Activity of Mixtures in the Greenhouse
(§10) Seeds of the desired test plant species were planted in 80% mineral soil/20% grit planting mixture, which typically has a pH of 7.2 and an organic matter content of about 2.9 percent, in plastic pots with a surface area of 128 square centimeters (cm^2). The growing medium was steam sterilized. The plants were grown for 7-19 days in a greenhouse with an approximate 14-hour (h) photoperiod which was maintained at about 29° C. during the day and 26° C. during the night. Nutrients and water were added on a regular basis and supplemental lighting was provided with overhead metal halide 1000-Watt lamps as necessary. The plants were treated with postemergence foliar applications when they reached the second to fourth true leaf stage. All treatments were applied using a randomized complete block trial design, with 4 replications per treatment.
(§11) Compound requirements are based upon a 12 mL application volume at a rate of 187 liters per hectare (L/ha). Spray solutions of the mixtures were prepared by adding the stock solutions to the appropriate amount of dilution solution to form 12 mL spray solution with active ingredients in single and two way combinations. Formulated compounds were applied to the plant material with an overhead Mandel track sprayer equipped with 8002E nozzles calibrated to deliver 187 L/ha at a spray height of 18 inches ([…] (cm)) above average plant canopy. The weed spectrum included broadleaf signalgrass (Brachiaria platyphylla, BRAPP), yellow nutsedge (Cyperus esculentus, CYPES), barnyardgrass (Echinochloa crus-galli, ECHCG), momingglory (Ipomoea, hederacea, IPOHE), and Chinese sprangletop (Leptochloa chinensis, LEFCH).
(§12) The treated plants and control plants were placed in a greenhouse as described above and watered by sub-irrigation to prevent wash-off of the test compounds. Treatments were rated at 16 days after application (DAA) as compared to the untreated control plants. Visual weed control was scored on a scale of 0 to 100 percent where 0 corresponds to no injury and 100 corresponds to complete kill.
as §5, §6, §7, §8

[5] = test system: morningglory (Ipomoea hederacea, IPOHE); assay: as above; settings: 16 days after application
Method: as §9, §10, §11, §12, §5, §6, §7, §8

[6] = test system: Chinese sprangletop (Leptochloa chinensis, LEFCH); assay: as above; settings: 16 days after application
Method: as §9, §10, §11, §12, §5, §6, §7, §8

[7] = test system: yellow nutsedge (Cyperus esculentus, CYPES); assay: as above; settings: 16 days after application
Method: as §9, §10, §11, §12, §5, §6, §7, §8

[8] = test system: barnyardgrass (Echinochloa crus-galli, ECHCG); assay: as above; settings: 16 days after application
Method: as §9, §10, §11, §12, §5, §6, §7, §8

[9] = Glyphosate 720 grams ai/ha alone
[10] = Glyphosate (IPA salt) 210 grams ai/ha alone
[11] = Penoxsulam 20 grams ai/ha alone
[12] = Penoxsulam 1.3 grams ai/ha alone
[13] = Penoxsulam 2.5 grams ai/ha alone
[14] = Penoxsulam 10 grams ai/ha alone

SMILES: O=C(O)CNCP(=O)(O)O [Glyphosate, N-(phosphonomethyl)glycine]
- MATCH Obs (Observed control) [1, 9]: 50%
- LOLSS Obs (Observed control) [2, 9]: 60%
- POAAN Obs (Observed control) [3, 9]: 93%
- BRAPP Obs (Observed control) ([4]; Glyphosate (IPA salt) 110 grams ai/ha alone): 15%
- IPOHE Obs (Observed control) [5, 10]: 31%
- LEFCH Obs (Observed control) ([6]; Glyphosate (IPA salt) 53 grams ai/ha alone): 1%
- LEFCH Obs (Observed control) [6, 10]: 41%

SMILES: COc1cnc(OC)n2nc(NS(=O)(=O)c3c(OCC(F)F)cccc3C(F)(F)F)nc12 [Penoxsulam, 2-(2,2-difluoroethoxy)-N-(5,8-dimethoxy-[1,2,4]triazolo[1,5-c]pyrimidin-2-yl)-6-(trifluoromethyl)benzenesulfonamide]
- MATCH Obs (Observed control) [1, 11]: 0%
- LOLSS Obs (Observed control) [2, 11]: 0%
- POAAN Obs (Observed control) [3, 11]: 0%
- BRAPP Obs (Observed control) [4, 12]: 9%
- BRAPP Obs (Observed control) [4, 13]: 10%
- BRAPP Obs (Observed control) ([4]; Penoxsulam 5 grams ai/ha alone): 4%
- CYPES Obs (Observed control) [7, 12]: 5.8% and 6%
- CYPES Obs (Observed control) [7, 13]: 31.8% and 32%
- CYPES Obs (Observed control) ([7]; Penoxsulam 5 grams ai/ha alone): 44%
- CYPES Obs (Observed control) [7, 14]: 65%
- ECHCG Obs (Observed control) [8, 12]: 63%
- ECHCG Obs (Observed control) [8, 13]: 62%
- IPOHE Obs (Observed control) [5, 12]: 16%
- IPOHE Obs (Observed control) [5, 13]: 31%
- IPOHE Obs (Observed control) ([5]; Penoxsulam 5 grams ai/ha alone): 31%
- IPOHE Obs (Observed control) [5, 14]: 31%
- LEFCH Obs (Observed control) [6, 12]: 5%
- LEFCH Obs (Observed control) [6, 13]: 1%
- LEFCH Obs (Observed control) ([6]; Penoxsulam 5 grams ai/ha alone): 2%
- LEFCH Obs (Observed control) [6, 14]: 6.3% and 6%
